The record followed here is EP4631960A1, “PEPTIDE HAVING INHIBITORY ACTIVITY AGAINST OSTEOCLAST DIFFERENTIATION, AND USE THEREOF” (Caregen Co., Ltd., priority 2022, dated 2024).

Peptide text beside a SMILES is read from it.

In this data set the test system is RAW264.7 cells. The data set is described as follows: CCK-8 cytotoxicity evaluation. In kind it is cell-based. The note with it: CCK-8 activity at 450 nm, after 3 days, FIG. 3. The method, then: Then, after 3 days, CCK-8 (Dojindo, CCK-8 kit) solution was added to 1/10 volume of the culture medium, diluted, and incubated for 2 hours. Thereafter, the culture medium was sampled and CCK-8 activity was confirmed at a wavelength of 450 nm using a microplate reader.

For `CC[C@H](C)[C@H](N)C(=O)N[C@H](C(=O)N[C@@H](C)C(=O)N1CCC[C@H]1C(=O)N[C@H](C(=O)NCC(=O)N[C@@H](Cc1ccc(O)cc1)C(=O)N[C@@H](Cc1ccc(O)cc1)C(=O)NCC(=O)N[C@@H](CC(N)=O)C(=O)O)[C@@H](C)O)[C@@H](C)CC` [Peptide-2, IIAPTGYYGN] (H-IIAPTGYYGN-OH), the cytotoxicity result is “did not exhibit cytotoxicity”.
